Active and inactive are the calls of the source. The rule behind the calls is not given here. Where a SMILES comes first, the peptide text is derived from it.
Assays:
Cavia porcellus [1] = test: Protection against UVB-induced pigmentation in Dunkin-Hartley guinea pig assessed as increase in whitening at 1 to 2 mM using CP hydrogel administered topically post UV radiation for 5 days/week for two consecutive weeks for a total 10 days by Fontana-Masson-staining based assay; assay type: functional, organism-based
Tyrosinase = target: T1, Tyrosinase (Agaricus bisporus, UniProt O42713); test: Inhibition of mushroom tyrosinase using L-dopa as substrate assessed as reduction in dopachrome production after 20 mins by spectrophotometry
T1 sequence (O42713 whole entry): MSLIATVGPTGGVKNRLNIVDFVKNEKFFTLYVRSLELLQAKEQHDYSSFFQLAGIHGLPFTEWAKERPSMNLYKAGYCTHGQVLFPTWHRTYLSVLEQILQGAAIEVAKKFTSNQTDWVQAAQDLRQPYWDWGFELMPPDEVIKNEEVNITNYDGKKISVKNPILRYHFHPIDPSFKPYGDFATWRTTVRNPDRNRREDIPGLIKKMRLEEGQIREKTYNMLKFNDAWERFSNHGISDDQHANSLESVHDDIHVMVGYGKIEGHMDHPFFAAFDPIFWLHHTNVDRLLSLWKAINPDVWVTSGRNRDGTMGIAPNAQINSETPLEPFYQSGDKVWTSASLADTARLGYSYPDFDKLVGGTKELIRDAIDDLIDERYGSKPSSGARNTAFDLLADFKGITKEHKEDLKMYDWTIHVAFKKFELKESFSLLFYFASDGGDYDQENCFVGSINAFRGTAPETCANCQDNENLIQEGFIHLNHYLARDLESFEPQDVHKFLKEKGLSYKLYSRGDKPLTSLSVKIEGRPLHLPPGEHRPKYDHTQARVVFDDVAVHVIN

Cavia porcellus [2] = test: (§1) Anti-melanogenic activity in UVB-induced pigmentation Dunkin-Hartley guinea pig model assessed as inhibition of UV-induced melanin production administered topically using PG solvent 6 hrs before UV radiation every day for 2 weeks by Fontana-Masson-staining based assay; assay type: functional, organism-based
[3] = Drug uptake in skin basal layer of brown guinea pig at 2 mM dosed topically after 2 to 4 hrs using FITC-labelled compound by H and E staining-based fluorescence microscopy; assay type: ADME, organism-based, Cavia porcellus; conditions: in vivo, topical_or_ocular, 2000 µM
[4] = Antioxidant activity assessed as ABTS radical scavenging activity at 80 uM after 10 mins relative to control; assay type: functional
[5] = Toxicity in Dunkin-Hartley guinea pig model of UVB-induced pigmentation assessed as abnormal morphological changes in dermis at 1 mM to 2 mM administered topically 6 hrs before UV radiation every day for 2 weeks by Fontana-Masson-staining based assay; assay type: tissue-based, Cavia porcellus; conditions: in vivo, topical_or_ocular, 1000 µM
[6] = Toxicity in Dunkin-Hartley guinea pig model of UVB-induced pigmentation assessed as abnormal morphological changes in epidermis at 1 mM to 2 mM administered topically 6 hrs before UV radiation every day for 2 weeks by Fontana-Masson-staining based assay; design: species or system Cavia porcellus; conditions: in vivo, topical_or_ocular, 1000 µM
Mus musculus = species on record: Mus musculus; test: Effect on JNK phosphorylation in mouse B16 cells up to 80 uM after 72 hrs by Western blot analysis; assay type: cell-based
Cavia porcellus [7] = test: as §1, with “production in epidermis basal layer at 1 to 2 mM” for “production”, “CP hydrogel” for “PG solvent”; assay type: functional, organism-based
HaCaT = test: Cytotoxicity against human HaCaT cells up to 150 uM by MTT assay relative to control; assay type: cell-based
[8] = Drug uptake in skin basal layer of brown guinea pig at 2 mM dosed topically after 1 hr using FITC-labelled compound by H and E staining-based fluorescence microscopy; assay type: ADME, organism-based, Cavia porcellus; conditions: in vivo, topical_or_ocular, 2000 µM
[9] = Reducing power of the compound assessed as reducing Fe3+ power at 80 uM using K3Fe(CN)6 in pH 6.6 phosphate buffer relative to control
LAD2 [10] = test: (§2) Proinflammatory activity in human LAD2 cells assessed as increase in mast-cell degranulation by measuring beta-hexosaminidase release at 1 mM preincubated for 30 mins followed 4-nitrophenyl-N-acetyl-beta-D-glucosaminide substrate addition and measured after 90 mins by fluorescence-based microplate reader analysis relative to control; assay type: ADME; conditions: lad2, 1.5 h, 1000 µM
[11] = Drug uptake in skin dermis of brown guinea pig at 2 mM dosed topically after 30 mins using FITC-labelled compound by H and E staining-based fluorescence microscopy; assay type: ADME, organism-based, Cavia porcellus; conditions: in vivo, topical_or_ocular, 0.5 h, 2000 µM
[12] = target: T2, Tyrosinase (Agaricus bisporus) (UniProt O42713); test: Inhibition of mushroom tyrosinase using L-dopa as substrate assessed as reduction in L-dopa oxidation at IC50 by spectrophotometry
T2 sequence (whole entry): T1 sequence (O42713 whole entry)

[13] = target: T3, Tyrosinase (Mus musculus) (UniProt P11344); test: Inhibition of TYR activity in mouse B16 cells assessed as melanin levels post exfoliation at 20 uM after 72 hrs by spectrophotometric analysis relative to control; assay type: cell-based; design: scale not given: the % may be the effect or the level left
T3 sequence (whole entry): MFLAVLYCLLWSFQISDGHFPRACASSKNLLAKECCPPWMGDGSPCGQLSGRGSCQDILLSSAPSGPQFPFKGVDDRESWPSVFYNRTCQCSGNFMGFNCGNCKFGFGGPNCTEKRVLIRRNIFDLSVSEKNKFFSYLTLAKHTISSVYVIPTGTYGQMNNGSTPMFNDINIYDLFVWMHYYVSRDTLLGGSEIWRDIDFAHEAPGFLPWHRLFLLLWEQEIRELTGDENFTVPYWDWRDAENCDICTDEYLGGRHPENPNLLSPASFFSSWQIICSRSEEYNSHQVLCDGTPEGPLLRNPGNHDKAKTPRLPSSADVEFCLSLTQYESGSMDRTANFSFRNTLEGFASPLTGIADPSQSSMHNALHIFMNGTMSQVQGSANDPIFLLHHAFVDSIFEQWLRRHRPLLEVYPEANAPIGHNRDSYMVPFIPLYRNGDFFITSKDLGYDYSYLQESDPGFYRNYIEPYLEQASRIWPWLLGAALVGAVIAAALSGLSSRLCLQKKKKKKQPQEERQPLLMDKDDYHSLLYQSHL

[14] = Drug uptake in skin epidermis of brown guinea pig at 2 mM dosed topically after 30 mins using FITC-labelled compound by H and E staining-based fluorescence microscopy; assay type: ADME, organism-based, Cavia porcellus; conditions: in vivo, topical_or_ocular, 0.5 h, 2000 µM
LAD2 [15] = test: as §2, with “0.5” for “1”; assay type: ADME; conditions: lad2, 1.5 h, 500 µM
B16 [16] = test: Downregulation of MITF protein expression in mouse B16 cells after 72 hrs by Western blot analysis; assay type: functional, cell-based
B16 [17] = test: Cytotoxicity against mouse B16 cells up to 150 uM by MTT assay relative to control; assay type: cell-based
[18] = target: T3, Tyrosinase (Mus musculus); test: Inhibition of TYR activity in mouse B16 cells assessed as increase in whitening at 20 uM preincubated for 72 hrs followed L-dopa substrate addition and measured after 4 hrs by fluorescence microscopy; assay type: cell-based
[19] = target: T2, Tyrosinase (Agaricus bisporus); test: Potency index, ratio of IC50 for arbutin to IC50 for test compound for inhibition of mushroom tyrosinase using L-dopa as substrate assessed as reduction in dopachrome production after 20 mins by spectrophotometry
LAD2 [20] = test: as §2, with “2” for “1”; assay type: ADME; conditions: lad2, 1.5 h, 2000 µM
Cavia porcellus [21] = test: Protection against UVB-induced pigmentation in Dunkin-Hartley guinea pig assessed as increase in whitening at 1 to 2 mM using PG solvent administered topically post UV radiation for 5 days/week for two consecutive weeks for a total 10 days by Fontana-Masson-staining based assay; assay type: functional, organism-based

IC50 (Tyrosinase): 53 µM
Drug uptake [3]: Not Active
Drug uptake [8]: Active
Activity (LAD2 [10]): 9.41%
Drug uptake [11]: Active
inhibition [12]: Active
Activity [13]: 52.2%
Drug uptake [14]: Active
Activity (LAD2 [15]): 7.15%
inhibition [18]: Active
Ratio IC50 [19]: 10
Activity (LAD2 [20]): 10.51%
SMILES: CC(C)[C@H](NC(=O)[C@H](CCCNC(=N)N)NC(=O)[C@H](Cc1ccccc1)NC(=O)[C@H](CS)NC(=O)[C@H](CCCNC(=N)N)NC(=O)[C@@H](N)[C@@H](C)O)C(=O)N[C@@H](CS)C(=O)N[C@@H](CO)C(=O)O (H-TRCFRVCS-OH)
Activity (Cavia porcellus [1]): Active
Activity (Cavia porcellus [2]): Dose-dependent effect
Activity [4]: 63%
Activity [5]: Non-Toxic
Activity [6]: Non-Toxic
Activity (Mus musculus): inactive
Activity (Cavia porcellus [7]): Active
Activity (HaCaT): 9%
Activity [9]: 0.31
inhibition (B16 [16]): Active
Activity (B16 [17]): 10%
Activity (Cavia porcellus [21]): Active

From ChEMBL document CHEMBL4325834, “De Novo Molecular Design of a Novel Octapeptide That Inhibits In Vivo Melanogenesis and Has Great Transdermal Ability” (J Med Chem, 2018)
